{
  "source": "patent US20220072101A1",
  "about": "“HARNESSING INFLAMMATION TO TREAT NEURODEVELOPMENTAL DISORDERS” (President and Fellows of Harvard College, priority 2019, published 2022)",
  "key": {"MIA offspring": {"system": "MIA offspring", "assay": "Reciprocal social interaction assay", "assay_type": "in vivo, mouse", "details": "four hours after LPS", "experimental": "Four hours prior to testing, mice were injected with vehicle or LPS. Two unfamiliar mice of the same treatment and background were placed in a fresh mouse cage and allowed to freely interact for 10 min. Videos were acquired using IC Capture (The Imaging Source®) at 640×480 aspect ratio and 25 fps. Social interaction (close following, push-crawl, nose-nose sniffing, and nose-anus sniffing) was scored by an observer blind to treatment and background^27."}, "[1]": {"system": "Cntnap2, Fmr1, and Shank3 mutant mice", "assay": "Three-chamber social approach assay in monogenic mutant mice", "assay_type": "in vivo, mouse", "details": "Cntnap2, Fmr1 and Shank3 mutant mice; LPS i.p.; 4 hours", "experimental": "All experiments were performed according to Guide for the Care and Use of Laboratory Animals and were approved by the National Institutes of Health and the Committee on Animal Care at Massachusetts Institute of Technology. C57BL/6 were purchased from Taconic Biosciences for generating PBS and MIA offspring. Vgat-Cre (028862) were purchased from Jackson Laboratories and inbred. For monogenic experiments, C57BL/6, Cntnap2 (017482), Fmr1 (003025), and Shank3 (017688) mice were purchased from Jackson Laboratories and inbred after colonizing with SFB from donor mice. IL-17Ra^fl/fl and IL-17RaKO were previously described^24,25. All mice were males aged 2-5 months, unless otherwise specified.\nAdult male mice were assayed for sociability using a three-chamber social approach assay. The arena was constructed of white acrylic (50 cm×35 cm×30 cm). Wire cups (Spectrum Diversified®) were placed in the back left and right corner of the arena beneath water-filled 1 L bottles (Nalgene®). On day 0, mice were habituated to the arena for 10 min. Immediately following habituation, mice were singly housed. On day 1 (Pre), mice were placed in the center of the arena and allowed to freely explore. Following 10 min, mice were confined to the center of the arena. An inanimate object (rubber stopper) or a male conspecific were placed beneath the wire cups. Placement of the inanimate object and social target were alternated. Mice were then allowed to freely explore the arena for 10 min. Interaction time was defined as time spent in the areas circumscribing the wire cups (<2 cm). Sociability was defined as interaction time with the social target divided by total interaction time and expressed as a percentage. For experiments involving LPS injections, mice were injected with either saline (Veh) or LPS ([…], i.p., L2630, Sigma) on day 2 (Test), four hours prior to testing. For the experiment assaying sociability 72 hrs following LPS injection, mice used for 4 hr LPS sociability experiments were tested for sociability again at 72 hrs. […]"}},
  "data": [
    {"substance": "lipopolysaccharide [LPS]", "values": [
      {"measurement": "reciprocal social interaction", "setting": "MIA offspring", "value": "rescue of MIA sociability deficits was also evident"},
      {"measurement": "sociability after LPS", "setting": "[1]", "value": "failed to restore sociability in mutant mice deficient for Cntnap2, Fmr1, and Shank3"}
    ]}
  ]
}
